# Laboratory results from patent US12350259B2, “Methods of treating migraine” (Allergan Pharmaceuticals International Limited, priority 2021, dated 2025).
# Like-named read-outs stand apart in the source and are kept apart here.
# Key:
# [1] = biological target: CYP3A4 (Homo sapiens, UniProt P08684); test: In vitro CYP inhibition; format: in vitro ADME; conditions: clinically relevant concentrations
# [2] = Atogepant-esomeprazole interaction study: safety; format: in vivo, human; conditions: atogepant 60 mg alone or with esomeprazole magnesium 40 mg
# Procedure: A phase 1, open-label, 2-intervention, single-sequence, nonrandomized, crossover, drug-drug interaction study was conducted to evaluate the effects of multiple-dose esomeprazole magnesium 40 mg on pharmacokinetics (PK) and safety of co-administered single-dose atogepant 60 mg in healthy adults.
# [3] = system: CYP2B6; test: CYP induction; format: in vitro ADME; conditions: clinically relevant concentrations
# [4] = biological target: MAO-A (Homo sapiens, UniProt P21397); test: Enzyme inhibition; format: in vitro ADME; conditions: clinically relevant concentrations
# [5] = biological target: OATP1B1 (Homo sapiens, UniProt Q9Y6L6); test: Transporter inhibition; format: in vitro ADME
# [6] = biological target: NTCP (Homo sapiens, UniProt Q14973); test: Transporter inhibition; format: in vitro ADME; conditions: clinically relevant concentrations
# [7] = biological target: MATE 1 (Homo sapiens, UniProt Q96FL8); test: Transporter inhibition; format: in vitro ADME
# [8] = Atogepant-itraconazole drug interaction study: atogepant plasma PK; format: in vivo, human; conditions: for Tmax / AUC(0-inf) / AUC(0-t) / Cmax / half-life / Vd/F: both sexes, human, plasma, oral; for Vd/F: read-out: Vz/F
# Procedure: An open-label, single-sequence drug-drug interaction study was carried out to evaluate the effect of CYP3A4 inhibition by oral itraconazole (200 mg per day) on the pharmacokinetics of a single oral dose of atogepant (60 mg) in healthy subjects.
# This study was a single-center, single-sequence, open-label, 2-period PK drug-interaction study in 40 healthy male and female subjects aged 18 through 45 years.
# Subjects who satisfied the inclusion and exclusion criteria were assigned to a single fixed-treatment sequence in which they received Treatment A followed by Treatment B; there was a 7-day washout period between treatments. • Treatment A: Single oral 60 mg dose of atogepant (tablet) under fasted conditions on Day 1 • Treatment B • Days 8-14: Itraconazole 200 mg (tablet) orally once daily under fed conditions. • Day 15: Itraconazole 200 mg coadministered with atogepant 60 mg (tablet) under fasted conditions. • Days 16 to 17: Itraconazole 200 mg (tablet) once daily under fed conditions.
# Atogepant was administered in the fasted state in this study. Administration of itraconazole with food enhances its bioavailability. Accordingly, to maximize the CYP3A4 inhibition effect, itraconazole was administered with food on all the itraconazole treatment days except day 15. On day 15, both itraconazole and atogepant were administered under fasted state. Fasted state administration of itraconazole on Day 15 was unlikely to affect the CYP3A4 inhibition effect due to the attainment of steady state (of CYP3A4 activity) and long T1/2 of itraconazole (34 to 42 hours) following repeat dose administration.
# [9] = Atogepant-quinidine gluconate (P-gp inhibition) drug interaction study: atogepant PK; format: in vivo, human
# Procedure: A phase 1, single-center, single-sequence, open-label, 2-intervention, drug-drug interaction study was conducted to evaluate the effects of P-glycoprotein (P-gp) inhibition by quinidine gluconate on pharmacokinetics (PK) and safety of atogepant. In this study, healthy adults received atogepant 60 mg on day 1, quinidine gluconate 324 mg twice daily on Day 8, quinidine gluconate 648 mg twice-daily on days 9-12, and atogepant 60 mg co-administered on day 11. Plasma samples were collected on days 1 and 11.
# Atogepant PK parameters calculated were peak plasma concentration (Cmax); time to Cmax (tmax); and area under plasma concentration—time curve from time 0 to time t (AUC0-t) and infinity (AUC0-∞). PK parameters of atogepant co-administered with quinidine gluconate vs. atogepant administered alone were compared using a mixed-effects model. Statistical significance was achieved if 90% confidence intervals (Cis) for least squares geometric mean ratios (GMRs) of PK parameter values for atogepant co-administered with quinidine gluconate to atogepant administered alone were within 80%-125%. Safety assessments included clinical laboratory values, vital signs, electrocardiograms, and […] adverse events (TEAEs).
# [10] = biological target: P-gp (Homo sapiens, UniProt P08183); test: Transporter substrate; format: in vitro ADME
# [11] = Atogepant-quinidine gluconate interaction study: safety; format: in vivo, human; conditions: atogepant 60 mg alone or with quinidine gluconate
# Excerpt: Atogepant PK parameters calculated were peak plasma concentration (Cmax); time to Cmax (tmax); and area under plasma concentration—time curve from time 0 to time t (AUC0-t) and infinity (AUC0-∞). […] Safety assessments included clinical laboratory values, vital signs, electrocardiograms, and […] adverse events (TEAEs).
# [12] = Treatment A: atogepant 60 mg single dose alone, fasted
# [13] = Treatment B: atogepant 60 mg + steady state itraconazole 200 mg
# [14] = atogepant + itraconazole vs atogepant alone
# [15] = co-administration with itraconazole (strong CYP3A4 inhibitor), healthy subjects
# [16] = co-administered with quinidine gluconate
# Chain of MATE 1 (Q96FL8 whole entry): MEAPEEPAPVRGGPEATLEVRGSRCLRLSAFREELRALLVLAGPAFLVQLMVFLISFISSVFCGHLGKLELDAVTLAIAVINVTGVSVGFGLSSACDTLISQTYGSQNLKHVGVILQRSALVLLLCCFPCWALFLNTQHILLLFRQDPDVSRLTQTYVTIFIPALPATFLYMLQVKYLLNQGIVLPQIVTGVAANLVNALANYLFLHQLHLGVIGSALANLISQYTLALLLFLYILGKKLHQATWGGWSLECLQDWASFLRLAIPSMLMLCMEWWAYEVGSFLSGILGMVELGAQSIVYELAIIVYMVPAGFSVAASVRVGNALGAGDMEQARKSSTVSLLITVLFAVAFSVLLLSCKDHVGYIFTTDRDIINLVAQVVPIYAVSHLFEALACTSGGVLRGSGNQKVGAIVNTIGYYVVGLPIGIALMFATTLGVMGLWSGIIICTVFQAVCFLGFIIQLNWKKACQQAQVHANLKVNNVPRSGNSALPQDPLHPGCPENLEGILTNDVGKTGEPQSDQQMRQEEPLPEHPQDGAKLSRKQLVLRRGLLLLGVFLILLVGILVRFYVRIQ
# Chain of P-gp (P08183 whole entry): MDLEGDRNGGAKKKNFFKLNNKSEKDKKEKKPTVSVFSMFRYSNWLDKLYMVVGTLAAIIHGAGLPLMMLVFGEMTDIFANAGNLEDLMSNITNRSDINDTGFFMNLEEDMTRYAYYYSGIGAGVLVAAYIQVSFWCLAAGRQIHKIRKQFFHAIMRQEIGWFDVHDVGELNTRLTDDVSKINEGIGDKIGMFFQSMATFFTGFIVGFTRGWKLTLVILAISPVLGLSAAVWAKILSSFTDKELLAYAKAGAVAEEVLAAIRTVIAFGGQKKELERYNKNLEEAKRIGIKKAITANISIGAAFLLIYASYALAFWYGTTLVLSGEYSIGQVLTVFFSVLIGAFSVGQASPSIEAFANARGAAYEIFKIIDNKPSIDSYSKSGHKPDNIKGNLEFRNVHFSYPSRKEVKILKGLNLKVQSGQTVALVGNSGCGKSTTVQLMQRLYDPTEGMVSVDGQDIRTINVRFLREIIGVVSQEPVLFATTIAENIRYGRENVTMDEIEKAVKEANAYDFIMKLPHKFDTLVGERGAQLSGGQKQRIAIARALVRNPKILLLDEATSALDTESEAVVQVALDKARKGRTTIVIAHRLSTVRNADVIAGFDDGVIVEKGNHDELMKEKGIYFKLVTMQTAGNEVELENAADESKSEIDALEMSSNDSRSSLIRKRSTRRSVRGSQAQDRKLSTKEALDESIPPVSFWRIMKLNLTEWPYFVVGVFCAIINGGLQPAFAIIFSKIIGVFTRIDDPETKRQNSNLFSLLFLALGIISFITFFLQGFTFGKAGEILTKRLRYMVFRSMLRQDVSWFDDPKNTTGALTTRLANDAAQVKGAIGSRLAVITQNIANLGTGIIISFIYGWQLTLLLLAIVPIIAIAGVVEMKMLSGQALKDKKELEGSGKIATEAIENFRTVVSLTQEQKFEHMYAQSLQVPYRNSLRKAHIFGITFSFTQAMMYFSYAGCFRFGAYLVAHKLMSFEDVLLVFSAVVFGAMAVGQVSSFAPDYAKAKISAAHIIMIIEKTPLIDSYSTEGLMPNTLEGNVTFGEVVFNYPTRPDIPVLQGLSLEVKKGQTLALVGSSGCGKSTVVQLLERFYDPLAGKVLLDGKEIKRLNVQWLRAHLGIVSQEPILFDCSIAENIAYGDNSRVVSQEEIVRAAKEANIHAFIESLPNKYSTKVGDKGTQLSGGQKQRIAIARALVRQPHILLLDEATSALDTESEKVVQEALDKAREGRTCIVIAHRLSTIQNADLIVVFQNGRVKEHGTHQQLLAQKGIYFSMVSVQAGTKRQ
# Chain of CYP3A4 (P08684 whole entry): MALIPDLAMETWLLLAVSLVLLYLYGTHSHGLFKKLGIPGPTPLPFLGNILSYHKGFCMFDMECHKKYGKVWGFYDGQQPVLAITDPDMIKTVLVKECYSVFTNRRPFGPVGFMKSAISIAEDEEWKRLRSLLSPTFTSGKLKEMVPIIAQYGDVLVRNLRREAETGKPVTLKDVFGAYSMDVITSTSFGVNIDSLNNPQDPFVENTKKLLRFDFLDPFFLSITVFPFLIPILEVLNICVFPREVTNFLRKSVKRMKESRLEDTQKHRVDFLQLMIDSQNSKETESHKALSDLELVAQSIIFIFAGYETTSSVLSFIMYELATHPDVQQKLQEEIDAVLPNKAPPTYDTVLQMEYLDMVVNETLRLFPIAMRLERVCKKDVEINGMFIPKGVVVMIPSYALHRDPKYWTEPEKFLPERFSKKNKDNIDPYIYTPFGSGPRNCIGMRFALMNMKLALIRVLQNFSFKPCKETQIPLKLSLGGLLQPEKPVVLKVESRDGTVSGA
# Chain of OATP1B1 (Q9Y6L6 whole entry): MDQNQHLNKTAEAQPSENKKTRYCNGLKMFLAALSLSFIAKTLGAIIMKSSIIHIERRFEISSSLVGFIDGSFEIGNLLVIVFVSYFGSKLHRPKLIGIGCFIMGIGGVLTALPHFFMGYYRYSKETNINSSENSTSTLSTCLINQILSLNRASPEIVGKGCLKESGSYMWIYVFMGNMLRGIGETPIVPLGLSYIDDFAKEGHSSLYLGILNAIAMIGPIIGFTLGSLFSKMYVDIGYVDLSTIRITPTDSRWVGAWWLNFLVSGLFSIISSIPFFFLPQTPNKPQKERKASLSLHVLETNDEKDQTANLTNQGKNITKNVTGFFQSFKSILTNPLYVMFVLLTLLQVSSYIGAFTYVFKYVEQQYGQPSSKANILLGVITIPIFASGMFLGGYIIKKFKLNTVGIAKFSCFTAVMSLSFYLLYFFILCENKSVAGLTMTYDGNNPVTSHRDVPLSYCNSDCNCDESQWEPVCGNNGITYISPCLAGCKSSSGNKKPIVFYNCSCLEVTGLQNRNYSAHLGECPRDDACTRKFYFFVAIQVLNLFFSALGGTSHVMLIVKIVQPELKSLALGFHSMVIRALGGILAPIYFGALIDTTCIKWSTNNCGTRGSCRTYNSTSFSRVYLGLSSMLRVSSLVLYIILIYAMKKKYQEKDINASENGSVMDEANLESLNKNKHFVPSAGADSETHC
# Chain of MAO-A (P21397 whole entry): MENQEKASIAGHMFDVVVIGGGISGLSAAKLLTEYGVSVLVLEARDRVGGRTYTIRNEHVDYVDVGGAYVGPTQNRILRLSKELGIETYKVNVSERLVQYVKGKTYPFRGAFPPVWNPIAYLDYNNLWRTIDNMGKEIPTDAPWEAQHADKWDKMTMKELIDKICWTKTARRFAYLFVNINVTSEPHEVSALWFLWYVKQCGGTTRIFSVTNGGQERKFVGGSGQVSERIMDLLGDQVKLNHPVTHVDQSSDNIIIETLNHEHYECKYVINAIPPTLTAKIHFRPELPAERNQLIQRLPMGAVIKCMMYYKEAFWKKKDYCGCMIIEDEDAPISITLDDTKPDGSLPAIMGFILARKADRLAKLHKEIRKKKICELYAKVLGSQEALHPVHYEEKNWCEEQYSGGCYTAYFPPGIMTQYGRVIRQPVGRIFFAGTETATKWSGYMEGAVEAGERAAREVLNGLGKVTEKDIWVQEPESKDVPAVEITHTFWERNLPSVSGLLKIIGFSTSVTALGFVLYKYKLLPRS
# Chain of NTCP (Q14973 whole entry): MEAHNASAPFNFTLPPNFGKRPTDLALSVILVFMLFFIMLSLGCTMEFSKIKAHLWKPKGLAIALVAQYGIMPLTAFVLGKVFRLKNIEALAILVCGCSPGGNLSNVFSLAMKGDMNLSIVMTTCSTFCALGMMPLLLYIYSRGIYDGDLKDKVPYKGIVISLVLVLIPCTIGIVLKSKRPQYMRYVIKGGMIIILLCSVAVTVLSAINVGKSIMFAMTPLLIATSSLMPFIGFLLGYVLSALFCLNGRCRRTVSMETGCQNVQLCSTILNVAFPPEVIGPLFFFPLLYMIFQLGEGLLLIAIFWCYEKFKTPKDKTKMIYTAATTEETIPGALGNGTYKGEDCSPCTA
compound,measurement,setting,value
"C[C@@H]1[C@H](c2c(F)ccc(F)c2F)C[C@H](NC(=O)c2cnc3c(c2)C[C@@]2(C3)C(=O)Nc3ncccc32)C(=O)N1CC(F)(F)F [atogepant, (3′S)-N-[(3S,5S,6R)-6-methyl-2-oxo-1-(2,2,2-trifluoroethyl)-5-(2,3,6-trifluorophenyl)piperidin-3-yl]-2′-oxo-1′,2′,5,7-tetrahydrospiro[cyclopenta[b]pyridine-6,3′-pyrrolo[2,3-b]pyridine]-3-carboxamide]",inhibition of CYP3A4,[1],not an inhibitor
same,safety and tolerability,[2],safe and tolerated
same,induction of CYP2B6,[3],not an inducer
same,inhibition of MAO-A,[4],does not inhibit
same,inhibition of OATP1B1,[5],weak inhibitor
same,inhibition of NTCP,[6],not an inhibitor
same,inhibition of MATE 1,[7],weak inhibitor
same,CL/F,[8]; [12],19.2 L/h
same,λz,[8]; [12],0.0825 h⁻¹
same,CL/F,[8]; [13],3.46 L/h
same,λz,[8]; [13],0.0496 h⁻¹
same,AUC0-t GM Ratio Treatment B/Treatment A,[8]; [14],543.26%
same,AUC0-∞ GM Ratio Treatment B/Treatment A,[8]; [14],550.78%
same,Cmax GM Ratio Treatment B/Treatment A,[8]; [14],215.11%
same,Tmax,"[8]; 60 mg, Treatment A: atogepant 60 mg single dose alone, fasted, read-out: Tmax (median)",2 h
same,Tmax,"[8]; atogepant + itraconazole vs atogepant alone, read-out: Tmax difference of medians",1 h
same,AUC(0-inf),[8]; [12],3470 ng·h/mL
same,AUC(0-t),[8]; [12],3440 ng·h/mL
same,Cmax,[8]; [12],740 ng/mL
same,half-life,[8]; [12],11.2 h
same,Vd/F,[8]; [12],292 L
same,AUC(0-inf),[8]; [13],18900 ng·h/mL
same,AUC(0-t),[8]; [13],18500 ng·h/mL
same,Cmax,[8]; [13],1580 ng/mL
same,half-life,[8]; [13],14.9 h
same,Tmax,"[8]; Treatment B: atogepant 60 mg + steady state itraconazole 200 mg, read-out: Tmax (median)",3 h
same,Vd/F,[8]; [13],73.4 L
same,increase in atogepant AUC,[8]; [15],5.5 fold
same,increase in atogepant Cmax,[8]; [15],2.15 fold
same,AUC increase,[9]; [16],approximately 25%
same,Cmax increase,[9]; [16],4.4%
same,Tmax,"[9]; human, plasma, with or without quinidine gluconate, read-out: atogepant median tmax",1.5 h
same,substrate of P-gp,[10],substrate
same,safety and tolerability,[11],safe and well tolerated
